Structures can show the parent of a compound that is named as a salt.
Tests used:
spermatozoa = test: Teratospermia Test; assay type: in vivo, mice; settings: positive control 40 mg/kg
Procedure: 3.2 Preparation of sample: Sample 5000, 2500 or 1250 mg was weighted and grinded. Distilled water was added into the grinded sample to 20 ml, and the mixture was blended sufficiently to obtain a test sample.
3.3 Animal subject: Male mice, depuratory grade, 25-30 g, provided by experimental animal department, Fudan University. Certificate No.: 02-22-1.
3.5.1 Animals were divided randomly into 5 groups, 5 in each group. It the five groups, there were three groups for three doses of test sample, one negative control group, distilled water, and one positive control group, cyclophosphaide.
3.5.2. Animals were weighted and administrated with the test sample or control substances in different concentrations in a volume of 0.4 ml/20 g via an intragastric catheter, once a day for 5 days.
3.5.3 Animals were sacrificed via cervical bertebra dislocation 35 days after the first intragastric administration. The ambo-epididymises were taken off and put into normal saline. After being cut into pieces, they were filtered through a four layer gauze. The filter was smeared, fixed and dyed with 2% eosin.
3.5.4 Test under microscope: Amounts of teratosperm in 1000 spernatozoas were counted per mouse and rates of teratospermia were calculated statistically.

[1] = tested on: philo-pleochromatic akaryocytes in animal marrow; test: Micronucleus Test; assay type: in vivo, mice; settings: positive control 40 mg/kg; for Micronucleated Cells No.: 5000 cells tested
Procedure: 2.2 Preparation of sample: Sample 5000, 2500 or 1250 mg was weighted and grinded. Distilled water was added into the grinded sample to 20 ml, and the mixture was blended sufficiently to form a test sample.
2.3 Animal subject: Kunming species of mice, 25-30 g, provided by experimental animal department, Fudan University. Certificate No.: 02-22-1.
2.5.1 Animals were divided randomly into 5 groups, 10 in each group with half of female and half of male. In the five groups, there were three groups for three doses of test sample, one negative control group, distilled water, and one positive control group, cyclophosphaide.
2.5.2. Animals were weighted and administrated with the test sample or control substances in different concentrations in a volume of 0.4 ml/20 g via an intragastric catheter, and the administration is repeated once more in 30 hr.
2.5.3 Animals were sacrificed via cervical bertebra dislocation 6 hr. after the second intragastric administration. The marrow was taken out of the femoral bone and blended uniformly with calf serum. Then, the film preparation, the fixation, and Giemasa stain were undertaken conventionally.
2.5.4 Test under microscope: Numbers of micronuclei were counted in over one thousand of philo-pleochromatic akaryocytes. Incidence rates of micronuclei were calculated and analyzed statistically.

M cells = test: tissue culture experiments, growth of M cells / collagen fiber network; assay type: cell-based; settings: vs control group (P>0.05)
Source text: The difference in comparison with the control group is statistically significant ([…]).

TA102 = test: AmesTest, strain TA102
Procedure: (§1) 4.3 Sample processing and preparation: 4000 mg sample was weighted and distilled water was added into the sample to 20 ml, then the mixture was blended to obtain a 200 mg/ml of solution. 3, 1, 0.3 and 0.1 mL of this solution were taken, respectively and each was added with sterile distilled water to 10 ml to obtain a solution in the concentration of 60 mg/ml, 20 mg/ml, 6 mg/ml and 2 mg/ml, respectively.
(§2) 4.4 Test doses: 0.2 mg/dish, 0.6 mg/dish, 2 mg/dish, 6 mg/dish and 20 mg/dish
(§3) 4.7 Test strains: TA97, TA98, TA100 and TA102, with qualitied biological characters, provided by Biochemistry Dept., California University, CA, America. The concentration of the bacteria liquid used for the test was 1-2×10^9/ml.
A healthy adult SD rat with a body weight of about 150 g was selected. Polychlorinatedbiphenyl was dissolved into corn oil to obtain a solution of 200 mg/ml. The above solution was injected (i.p.), in a sterile operation, into the rat in a dose of 500 mg/kg. 5 days later, the animal was sacrificed via decapitation. The liver was taken out and weighted, then rinsed several times with 0.15 mol/L of fresh cooled solution of potassium chloride. The amount of the potassium chloride solution was 3 ml/g liver (wet weight). The beaker in which the rinsed liver put was removed into an ice bath, and the liver was cut into pieces with a pair of sterilized scissors. The liver was homogenized with a tissue homogenizer (2000 r/min, 1 min), then the liver homogenate thus prepared was centrifuged in a high speed centrifuge (0-4° C., 9000 g, 10 min). The supernatant, S9 part, was packed into several sterile tubes and conserved in liquid nitrogen. The above steps need to be operated in a sterile and cooled local circumstance. The S9 thus prepared was further identified for its content of protein and bioactivity of indirect mutagen.
Standard plate incorporation on the basis of GB15193-94: Into the top agar (45° C., 2 ml), the bacterial liquid 0.1 ml, Sample 0.1 ml and S9 mixture 0.5 ml for activation were added sequently. The mixture was blended sufficiently and poured rapidly onto the underlayer medium. After the incubation of 48 hr. at 37° C., results were observed. each test was repeated once more.

TA100 = test: AmesTest, strain TA100
Procedure: as §1, §2, §3
A healthy adult SD rat with a body weight of about 150 g was selected. Polychlorinatedbiphenyl was dissolved into corn oil to obtain a solution of 200 mg/ml. The above solution was injected (i.p.), in a sterile operation, into the rat in a dose of 500 mg/kg. 5 days later, the animal was sacrificed via decapitation. The liver was taken out and weighted, then rinsed several times with 0.15 mol/L of fresh cooled solution of potassium chloride. The amount of the potassium chloride solution was 3 ml/g liver (wet weight). The beaker in which the rinsed liver put was removed into an ice bath, and the liver was cut into pieces with a pair of sterilized scissors. […]

[2] = Salmonella typhimurium, 48 h, 1 μl/dish

O=P1(N(CCCl)CCCl)NCCCO1 (stereo not shown) [Cyclophosphaide]
Aberration rate (‰) (spermatozoa): 58.4 ‰
Type of aberration (n): Banana sharp (spermatozoa; 5000 spernatozoa tested): 32
Type of aberration (n): Double head (spermatozoa; 5000 spernatozoa tested): 4
Type of aberration (n): Double tail (spermatozoa; 5000 spernatozoa tested): 6
Type of aberration (n): Fat head (spermatozoa; 5000 spernatozoa tested): 45
Type of aberration (n): Fold tail (spermatozoa; 5000 spernatozoa tested): 2
Type of aberration (n): No crook (spermatozoa; 5000 spernatozoa tested): 28
Type of aberration (n): amorphism (spermatozoa; 5000 spernatozoa tested): 175
Rate of Micronuclei (‰) ([1]; F): 25.8 ‰
Micronucleated Cells No. ([1]; F): 129
Rate of Micronuclei (‰) ([1]; M): 26.4 ‰
Micronucleated Cells No. ([1]; M): 132

C[C@@H]1O[C@@H](O[C@@H]2[C@@H](O)[C@H](OCCc3ccc(O)c(O)c3)O[C@H](CO)[C@H]2OC(=O)/C=C/c2ccc(O)c(O)c2)[C@H](O)[C@H](O)[C@H]1O [acteoside, Acteoside]
promotion on the growth of M cells (M cells): obvious promotion

COS(C)(=O)=O [Methyl mesylate]
Re-established colonies (TA102; [2]): 2520 ± 112 colonies/sish
Re-established colonies (TA102; first test, TA102 −S9, positive control 1 μl/dish): 2784 ± 289 colonies/sish
Re-established colonies (TA100; [2]): 1641 ± 80 colonies/sish
Re-established colonies (TA100; first test, TA100 −S9, positive control 1 μl/dish): 1463 ± 84 colonies/sish

O=C1c2cccc(O)c2C(=O)c2c(O)cccc21 [1,8-dioxy anthraquinone]
Re-established colonies (TA102; first test, TA102 +S9, positive control 50 μl/dish): 885 ± 56 colonies/sish
Re-established colonies (TA102; second test, TA102 +S9, positive control 50 μl/dish): 975 ± 86 colonies/sish

From patent publication US20090301508A1, “Cosmetic Composition and Preparation Method and Use Thereof” (priority 2006, published 2009)
